# pIC50: −log10 of the molar value.
# Target: T1, G1 APOL1 (Homo sapiens, UniProt O14791, I384M/S342G)
# T1 construct: expressed in transfected cells
# T1 sequence (O14791 28-398 S342G/I384M): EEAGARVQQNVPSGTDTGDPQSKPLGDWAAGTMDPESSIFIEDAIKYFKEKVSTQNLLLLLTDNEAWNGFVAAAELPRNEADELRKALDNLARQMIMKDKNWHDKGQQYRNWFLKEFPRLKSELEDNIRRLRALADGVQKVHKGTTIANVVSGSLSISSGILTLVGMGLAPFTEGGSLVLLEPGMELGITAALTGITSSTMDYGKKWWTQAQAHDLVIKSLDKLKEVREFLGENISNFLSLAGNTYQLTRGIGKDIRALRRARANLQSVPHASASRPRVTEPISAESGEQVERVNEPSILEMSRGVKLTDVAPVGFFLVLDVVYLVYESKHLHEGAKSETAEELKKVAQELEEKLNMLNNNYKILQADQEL
# Assay: Acute APOL1 Thallium Assay with inducible stable clones of HEK 293 cells
# Type: cell-based
# Settings: HEK 293 T-Rex inducible stable clone expressing G1 APOL1; read-out: Thallium Assay (IC50)
# From the text: Acute APOL1 Thallium Assay with Inducible Stable Clones of HEK 293 Cells
# Apolipoprotein L1 (APOL1) proteins form potassium-permeable cation pores in the plasma membrane. APOL1 risk variants (G1 and G2) induce greater potassium flux than G0 in HEK293 cells. This assay exploits the permeability of thallium (T1+) through ligand-gated potassium channels. The dye produces a bright fluorescent signal upon binding to T1+ conducted through potassium channels. The intensity of the T1+ signal is proportional to the number of potassium channels in the open state. Therefore, it provides a functional indication of the potassium channel activities. During the initial dye-loading step, the T1+ indicator dye as an acetoxymethyl (AM) ester enters the cells through passive diffusion. Cytoplasm esterases cleave the AM ester and relieve its active thallium-sensitive form. The cells are then stimulated with T1+. The increase of fluorescence in the assay represents the influx of T1+ into the cell specifically through the potassium channel (i.e. through APOL1 pores), providing a functional measurement of potassium channel/pore activity. The Thallium assay is conducted with cells expressing G1 APOL1.
# APOL1 Cell Line (HEK T-Rex Stable Inducible Cell Line)
# • HEK T-Rex System • Tetracycline (Tet) inducible mammalian expression system. • Stably express the Tet repressor to regulate transcription. • Expression under the full-length CMV promoter. • APOL1 stable inducible cell line Clone used: G1 DC3.25 Tissue Culture Media Cell Culture Medium • DMEM+10% FBS+P/S+5 μg/mL blasticidin+1 μg/mL puromycin. • 500 mL DMEM+55 mL FBS+5 mL P/S+280 μL blasticidin S HCl (10 mg/mL)+56 μL puromycin (10 mg/mL). Cell Assay Medium • DMEM with 2% FBS+penicillin streptomycin. Reagents:
# Instruments and Equipment • Nuaire cell culture hood, Cat. No. 540-600 • 37° C./5% CO2 incubator link to robotic arm, Liconic: STX110 • Molecular Devices FLIPR^Tetra High throughput cellular screening system, Cat. No. FT0324, Molecular Devices • ThermoFisher MultiDrop 384, Cat. No. 5840300 • Biotek Microfill, Cat. No. ASF1000A-4145 • BioRad TC10 cell counter, Cat. No. 145-0010 Assay Procedures Cells Scaled Up from Frozen Vials • APOL1 G1 3.25 (HEK293 T-Rex) frozen vials: 5 million cells per vial • Step 1, Day 1: Defrost frozen vial into T-225. • Step 2, Day 5: (when 85% confluent): Split one T-225 at 3×10^6 cells per flask. • Step 3, Day 8: Splits cells to set up for the assay plates as described below. Cell Culture
# T-Rex APOL1 HEK cells are split twice per week to keep the confluence state below 85% of the culture flask surface area. Cells can be kept until passage 25.
# • DMEM high glucose+10% FBS, +P/S, +5 μg/mL blasticidin, +1 μg/mL puromycin. • 500 mL DMEM, +55 mL FBS, +5 mL P/S, +280 μL blasticidin 10 mg/mL, +56 μL Puromycin 10 mg/mL. Assay Media • Opti-MEM reduced serum medium from Invitrogen. Day 1 Preparation of Cell Assay Plates • Culture medium is removed from the x cm^2 T-flask by aspiration. • The cell monolayer is rinsed with PBS 1× at room temperature. PBS is removed by aspiration. • Cells are trypsinized using Trypsin. • The flasks are incubated at room temperature for 2-3 minutes. • Complete DMEM medium is then added. Cell suspension is then transferred to a 50 mL Falcon polypropylene tube. • Cells are then counted using a BioRad TC10 cell counter and the required amount of cells are centrifuged at 1200 RPM for 5 minutes. Required amount is 1.3×10^6 cells/mL APOL1 T-Rex HEK cells. • The pellet is suspended in the assay medium. • Using the MultiDrop, add 20 μL to each well (corresponds to 26000 cells total per well) of a 384-well black, transparent, flat bottom Poly-D coated plate. • Tetracycline as prepared in the following section is added to the cells before plating to induce APOL1 expression. • Plates are left at room temperature for 20 to 30 minutes before incubation at 37° C. and 5% CO2. […]
row,SMILES,pIC50
1,N[C@@H](C(=O)NC[C@H]1C[C@H](c2c(-c3ccc(F)cc3)[nH]c3c(F)cc(F)cc32)C1)C1CC1 [Compound 264],< 6.00
2,CC(C)(C)OC(=O)N[C@@H](CO)C(=O)NC[C@H]1C[C@H](c2c(-c3ccc(F)cc3)[nH]c3c(F)cc(F)cc32)C1 [Compound 193],> 6.60
3,CC(=O)N[C@@H](C)C(=O)NC[C@H]1C[C@H](c2c(-c3ccc(F)cc3)[nH]c3c(F)cc(F)cc32)C1 [Compound 208],6.00 to 6.60
4,CN(C1COC1)C1CC(c2c(-c3ccc(F)cc3)[nH]c3c(F)cc(F)cc23)C1 (centres unmarked) [Compound 24],< 6.00
5,O=S(=O)(NC[C@H]1C[C@H](c2c(-c3ccc(F)cc3)[nH]c3c(F)cc(F)cc32)C1)NC1(CO)CC1 [Compound 343],6.00 to 6.60
6,O=C1CC(C(=O)N[C@H]2C[C@H](c3c(-c4ccc(F)cc4)[nH]c4c(F)cc(F)cc43)C2)C(=O)N1 (some centres unmarked) [Compound 128],> 6.60
7,O=C1NCCC1C(=O)NC1CC(Cc2c(-c3ccc(F)cc3)[nH]c3c(F)cc(F)cc23)C1 (centres unmarked) [Compound 163],< 6.00
8,C[C@@H](O)CNCC1CC(c2c(-c3ccc(F)cc3)[nH]c3c(F)cc(F)cc23)C1 (some centres unmarked) [Compound 383],6.00 to 6.60
9,O=C(NC[C@H]1C[C@H](c2c(-c3ccc(F)cc3)[nH]c3c(F)cc(F)cc32)C1)[C@@H]1CCN1 [Compound 198],> 6.60
10,O=C(NC[C@H]1C[C@H](c2c(-c3ccc(F)cc3)[nH]c3c(F)cc(F)cc32)C1)c1ccn[nH]c1=O [Compound 312],< 6.00
11,O=C(NC[C@H]1C[C@H](c2c(-c3ccc(F)cc3)[nH]c3c(F)cc(F)cc32)C1)[C@@H]1COCCN1 [Compound 276],< 6.00
12,O=C(CC1COC1)NC[C@H]1C[C@@H](c2c(-c3ccc(F)cc3)[nH]c3c(F)cc(F)cc32)C1 [Compound 319],< 6.00
13,O=C(CCN1CCCC1)N[C@H]1C[C@@H](c2c(-c3ccc(F)cc3)[nH]c3c(F)cc(F)cc32)C1 [Compound 44],< 6.00
14,NCC(O)CNCC1CC(c2c(-c3ccc(F)cc3)[nH]c3c(F)cc(F)cc23)C1 (centres unmarked) [Compound 403],< 6.00
15,OCC(CO)(CO)NCC1CC(c2c(-c3ccc(F)cc3)[nH]c3c(F)cc(F)cc23)C1 (centres unmarked) [Compound 406],< 6.00
16,O=C(N[C@H]1C[C@H](c2c(-c3ccc(F)cc3)[nH]c3c(F)cc(F)cc32)C1)C1(CO)CC1 [Compound 142],> 6.60
17,NCC1CC(c2c(-c3ccc(F)cc3)[nH]c3c(F)cc(C(F)(F)F)cc23)C1 (centres unmarked) [Compound 178],6.00 to 6.60
18,C[C@@H](N)C(=O)NC[C@H]1C[C@H](c2c(-c3ccc(F)cc3)[nH]c3c(F)cc(F)cc32)C1 [Compound 236],< 6.00
19,O=S(=O)(NC[C@H]1C[C@H](c2c(-c3ccc(F)cc3)[nH]c3c(F)cc(F)cc32)C1)c1cn[nH]c1 [Compound 416],< 6.00
20,"CS(=O)(=O)NC[C@H]1C[C@H](c2c(-c3ccc(F)cc3)[nH]c3c(F)cc(F)cc32)C1 [Compound 412, N-(((1r,3r)-3-(5,7-difluoro-2-(4-fluorophenyl)-1H-indol-3-yl)cyclobutyl)methyl)methanesulfonamide]",6.00 to 6.60
21,O=C(NC[C@H]1C[C@H](c2c(-c3ccc(F)cc3)[nH]c3c(F)cc(F)cc32)C1)[C@H]1CCCN1 [Compound 282],< 6.00

row,SMILES,pIC50
1,O=C1CC(C(=O)NC[C@H]2C[C@@H](c3c(-c4ccc(F)cc4)[nH]c4c(F)cc(F)cc43)C2)CC(=O)N1 [Compound 291],< 6.00
2,O=C(CCN1CCCCC1)N[C@H]1C[C@@H](c2c(-c3ccc(F)cc3)[nH]c3c(F)cc(F)cc32)C1 [Compound 61],< 6.00
3,"O=S(=O)(N[C@H]1C[C@H](c2c(-c3ccc(F)cc3)[nH]c3c(F)cc(F)cc32)C1)c1cn[nH]c1 [Compound 145, N-[(1r,3r)-3-[5,7-difluoro-2-(4-fluorophenyl)-1H-indol-3-yl]cyclobutyl]-1H-pyrazole-4-sulfonamide]",6.00 to 6.60
4,O=C(CC1CCCOC1)N[C@H]1C[C@H](c2c(-c3ccc(F)cc3)[nH]c3c(F)cc(F)cc32)C1 (some centres unmarked) [Compound 118],< 6.00
5,"O=C(N1CC(c2c(-c3ccc(F)cc3)[nH]c3c(F)cc(F)cc23)C1)C1(O)CC1 [Compound 442, (3-(5,7-difluoro-2-(4-fluorophenyl)-1H-indol-3-yl)azetidin-1-yl)(1-hydroxycyclopropyl)methanone]",6.00 to 6.60
6,O=C(NC[C@H]1C[C@@H](c2c(-c3ccc(F)cc3)[nH]c3c(F)cc(F)cc32)C1)c1nc[nH]n1 [Compound 302],< 6.00
7,NCC(=O)NC[C@H]1C[C@H](c2c(-c3ccc(F)cc3)[nH]c3c(F)cc(F)cc32)C1 [Compound 191],> 6.60
8,O=C(N[C@H]1C[C@@H](c2c(-c3ccc(F)cc3)[nH]c3c(F)cc(F)cc32)C1)C1(O)CC1 [Compound 76],6.00 to 6.60
9,"NC(=O)CNC(=O)N[C@H]1C[C@H](c2c(-c3ccc(F)cc3)[nH]c3c(F)cc(F)cc32)C1 [Compound 448, 2-(3-((1r,3r)-3-(5,7-difluoro-2-(4-fluorophenyl)-1H-indol-3-yl)cyclobutyl)ureido)acetamide]",6.00 to 6.60
10,CC(=O)N1CC[C@@H](C(=O)NC[C@H]2C[C@H](c3c(-c4ccc(F)cc4)[nH]c4c(F)cc(F)cc43)C2)C1 [Compound 256],< 6.00
11,O=S(=O)(N[C@H]1C[C@@H](c2c(-c3ccc(F)cc3)[nH]c3c(F)cc(F)cc32)C1)C1CCOCC1 [Compound 86],< 6.00
12,O=C(CN1CCOCC1)NC[C@H]1C[C@@H](c2c(-c3ccc(F)cc3)[nH]c3c(F)cc(F)cc32)C1 [Compound 272],< 6.00
13,O=C(N[C@H]1C[C@H](c2c(-c3ccc(F)cc3)[nH]c3c(F)cc(F)cc32)C1)C(F)F [Compound 144],> 6.60
14,Fc1ccc(-c2[nH]c3c(F)cc(F)cc3c2C2CC(CNCC(F)F)C2)cc1 (centres unmarked) [Compound 379],6.00 to 6.60
15,"CN(C)S(=O)(=O)NC[C@H]1C[C@H](c2c(-c3ccc(F)cc3)[nH]c3c(F)cc(F)cc32)C1 [Compound 370, 3-[3-[(dimethylsulfamoylamino)methyl]cyclobutyl]-5,7-difluoro-2-(4-fluorophenyl)-1H-indole]",< 6.00
16,O=C(CC(=O)N1CCOCC1)NC[C@H]1C[C@@H](c2c(-c3ccc(F)cc3)[nH]c3c(F)cc(F)cc32)C1 [Compound 300],< 6.00
17,CNCCC(=O)N[C@H]1C[C@H](c2c(-c3ccc(F)cc3)[nH]c3c(F)cc(F)cc32)C1 [Compound 134],6.00 to 6.60
18,NC(=O)C(=O)NC[C@H]1C[C@H](c2c(-c3ccc(F)cc3)[nH]c3c(F)cc(F)cc32)C1 [Compound 451],6.00 to 6.60
19,C[C@H](O)C(=O)NC1CC(Cc2c(-c3ccc(F)cc3)[nH]c3c(F)cc(F)cc23)C1 (some centres unmarked) [Compound 161],6.00 to 6.60
20,O=C(Cc1ncccn1)NC[C@H]1C[C@H](c2c(-c3ccc(F)cc3)[nH]c3c(F)cc(F)cc32)C1 [Compound 248],< 6.00
